Consider 7 compounds from ChEMBL document CHEMBL1132828, “Pharmacophore identification of a specific CXCR4 inhibitor, T140, leads to development of effective anti-HIV agents with very high selectivity indexes” (Bioorg Med Chem Lett, 2000).

As a reminder, the CC50 is the concentration that lowers cell viability or growth by half.

Experiment [1] is described as follows: Ratio of cytotoxic concentration (CC50) in test-I to that of EC50 of compound. Type of experiment: functional, Homo sapiens.
The next experiment relates to MT4. The experiment in a line: Compound was tested for reduction of the viability of mock infected MT-4 cell in test-I. Type of experiment: functional. The following applies: Homo sapiens.

The structures appear in SMILES notation. Where a SMILES comes first, the peptide text is derived from it. Bridges are numbered along the chain shown (N, C = ends). [ ]: non-standard residue; d: D form. 2Nal = N[C@@H](Cc1ccc2ccccc2c1)C(=O)O; Cit = NC(=O)NCCC[C@H](N)C(=O)O

As to `C[C@H]1NC(=O)[C@H](CCCCN)NC(=O)[C@H](CCCN=C(N)N)NC(=O)[C@H](Cc2ccc(O)cc2)NC(=O)[C@@H](NC(=O)[C@H](Cc2ccc3ccccc3c2)NC(=O)[C@H](CCCN=C(N)N)NC(=O)[C@@H](N)CCCN=C(N)N)CSSC[C@@H](C(=O)N[C@@H](CCCN=C(N)N)C(=O)O)NC(=O)[C@H](CCCNC(N)=O)NC(=O)[C@H](CCCN=C(N)N)NC(=O)[C@H](Cc2ccc(O)cc2)NC(=O)[C@@H]2CCCN2C1=O`, the Ratio in experiment [1] is >5200. Besides, in the experiment on MT4, the CC50 was > 80 µM.

In the case of `C[C@@H]1NC(=O)[C@@H](CCCCN)NC(=O)[C@H](CCCCN)NC(=O)[C@H](CCCN=C(N)N)NC(=O)[C@H](Cc2ccc(O)cc2)NC(=O)[C@@H](NC(=O)[C@H](Cc2ccc3ccccc3c2)NC(=O)[C@H](CCCN=C(N)N)NC(=O)[C@@H](N)CCCN=C(N)N)CSSC[C@@H](C(=O)N[C@@H](CCCN=C(N)N)C(=O)O)NC(=O)[C@H](CCCNC(N)=O)NC(=O)[C@H](CCCN=C(N)N)NC(=O)[C@H](Cc2ccc(O)cc2)NC1=O` (H-RR[2Nal]CYRK[dK]AYR[Cit]CR-OH; disulfide 4-13), the Ratio in experiment [1] is given as >4700. In the experiment with MT4, the CC50 was > 80 µM.

In the case of `C[C@@H]1NC(=O)[C@@H]2CCCN2C(=O)[C@@H](CCCCN)NC(=O)[C@H](CCCCN)NC(=O)[C@H](CCCN=C(N)N)NC(=O)[C@H](Cc2ccc(O)cc2)NC(=O)[C@@H](NC(=O)[C@H](Cc2ccc3ccccc3c2)NC(=O)[C@H](CCCN=C(N)N)NC(=O)[C@@H](N)CCCN=C(N)N)CSSC[C@@H](C(=O)N[C@@H](CCCN=C(N)N)C(=O)O)NC(=O)[C@H](CCCNC(N)=O)NC(=O)[C@H](CCCN=C(N)N)NC1=O`, the Ratio in experiment [1] is given as >4500. Moreover, in the experiment with MT4, the CC50 was > 80 µM.

Regarding `C[C@@H]1NC(=O)[C@H](CCCN=C(N)N)NC(=O)[C@H](Cc2ccc(O)cc2)NC(=O)[C@@H]2CCCN2C(=O)[C@@H](CCCCN)NC(=O)[C@H](CCCCN)NC(=O)[C@H](CCCN=C(N)N)NC(=O)[C@H](Cc2ccc(O)cc2)NC(=O)[C@@H](NC(=O)[C@H](Cc2ccc3ccccc3c2)NC(=O)[C@H](CCCN=C(N)N)NC(=O)[C@@H](N)CCCN=C(N)N)CSSC[C@@H](C(=O)N[C@@H](CCCN=C(N)N)C(=O)O)NC1=O`, in experiment [1], the Ratio is reported as 3300. Besides, the CC50 in the experiment with MT4 was 55 µM.

On to `C[C@H](NC(=O)[C@H](CCCN=C(N)N)NC(=O)[C@@H](N)CCCN=C(N)N)C(=O)N[C@H]1CSSC[C@@H](C(=O)N[C@@H](CCCN=C(N)N)C(=O)O)NC(=O)[C@H](CCCNC(N)=O)NC(=O)[C@H](CCCN=C(N)N)NC(=O)[C@H](Cc2ccc(O)cc2)NC(=O)[C@@H]2CCCN2C(=O)[C@@H](CCCCN)NC(=O)[C@H](CCCCN)NC(=O)[C@H](CCCN=C(N)N)NC(=O)[C@H](Cc2ccc(O)cc2)NC1=O`, for which the Ratio in experiment [1] was >34. For the same compound, the CC50 in the experiment on MT4 is > 80 µM.

On to `C[C@H](NC(=O)[C@@H](N)CCCN=C(N)N)C(=O)N[C@@H](Cc1ccc2ccccc2c1)C(=O)N[C@H]1CSSC[C@@H](C(=O)N[C@@H](CCCN=C(N)N)C(=O)O)NC(=O)[C@H](CCCNC(N)=O)NC(=O)[C@H](CCCN=C(N)N)NC(=O)[C@H](Cc2ccc(O)cc2)NC(=O)[C@@H]2CCCN2C(=O)[C@@H](CCCCN)NC(=O)[C@H](CCCCN)NC(=O)[C@H](CCCN=C(N)N)NC(=O)[C@H](Cc2ccc(O)cc2)NC1=O`, for which, in experiment [1], the Ratio was >64. Besides, the CC50 in the experiment with MT4 is > 80 µM.

Turning to `C[C@H](NC(=O)[C@@H]1CSSC[C@H](NC(=O)[C@H](Cc2ccc3ccccc3c2)NC(=O)[C@H](CCCN=C(N)N)NC(=O)[C@@H](N)CCCN=C(N)N)C(=O)N[C@@H](Cc2ccc(O)cc2)C(=O)N[C@@H](CCCN=C(N)N)C(=O)N[C@@H](CCCCN)C(=O)N[C@H](CCCCN)C(=O)N2CCC[C@H]2C(=O)N[C@@H](Cc2ccc(O)cc2)C(=O)N[C@@H](CCCN=C(N)N)C(=O)N[C@@H](CCCNC(N)=O)C(=O)N1)C(=O)O`, the Ratio in experiment [1] is >210. The CC50 in the experiment on MT4 is > 80 µM.
